From patent publication US11596716B2, “Compounds and matrices for use in bone growth and repair” (Human BioMolecular Research Institute, priority 2013, dated 2023) come the findings set out here.

Like-named read-outs stand apart in the source and are kept apart here.

In one assay the test system is C2C12 cells. Briefly: Alkaline Phosphatase (ALP) functional activity assay in C2C12 cells. In kind it is cell-based, Mouse. The settings on record: normalized to DMSO treatment; for activation at 0.5 µM: Mus musculus, C2C12, 144 h. Here is the method:
Alkaline Phosphatase (ALP) Functional Activity Assay: C2C12 cells were plated into 12-well plates with 7,000 cells/well in 1 mL growth media. […] 1, 2, 3, or 4 in 0.1% DMSO was added (500 nM). Half the media was exchanged with fresh media containing compound every 48 hrs. After 6 days, media was removed, ALP Lysis Buffer (10 mM Tris-HCl pH 8.0, 1 mM MgCl2, and 1% Triton X100) added, and cell lysate obtained (10 min incubation at RT) by centrifugation (5 min at 3500× g at 4° C.). Para-nitrophenol phosphate (pNPP) (2 mg/mL) was incubated with 50 μl cell lysate (10 mins, 37° C.). After addition of […] 0.02 N NaOH, absorbance OD405 was measured. Protein concentration was determined by Bradford protein assay. Results of ALP activity were plotted as nM pNP hydrolyzed/mg total protein. After normalizing control samples (i.e., DMSO-treated samples) to one-fold, the fold-changes were plotted to indicate the relative ALP activity. […] This protocol was applied to hMSC and E15 cells as well.

A further assay concerns Wnt transcription. Briefly: WNT transcriptional reporter assay (Super(8×)TOPflash luciferase, HEK293T cells). Format: cell-based. The settings on record: Wnt3A-expressing vector, 20 hrs, relative to cells treated with DMSO alone, read-out: Wnt transcription potency. The text has this:
Commercially available Super(8×)TOPflash vector driven by a (7×) TCF-firefly luciferase response element was transiently transfected into HEK293T cells, together with a TK-driven Renilla luciferase plasmid as an internal control to normalize the luminescence signal and a Wnt3A-expressing vector as the source of pathway activation. HEK293T cells were transfected with plasmids in DMEM plus 10% fetal bovine serum (FBS) for 8 hr, replated to 96-well plates in DMEM plus 10% FBS followed by treatment with compounds (1.6 nM to 5 M) (DMSO final concentration is 0.5%) for 20 hrs. Firefly and Renilla luciferase activities were measured and normalized by the Renilla luciferase values.
In general terms: In a reporter assay the amount or activity of a reporter protein is the signal.

A further assay relates to hMSCs. Briefly: qPCR of target gene mRNA expression in hMSCs. In kind it is cell-based, human. Conditions: hMSCs, comparison with compound 3 and calcium phosphate ceramic. The procedure: qPCR detection of osteogenic markers: Cells were cultured with compound in the presence or absence of matrix as described above, but using 96-well plate format. Total RNA was extracted from cells (as above) using Trizol. cDNA was made using 750 ng of total RNA with Bio-Rad iscript kit and was diluted 20-fold before being used for qPCR. qPCR was conducted under the following conditions: 95° C., 2 min; 95° C., 10 s and 60° C., 45 s for 40 cycles; 60° C. for 71 cycles for melt curve. qPCR results were analyzed by the ΔΔCt method. 18s rRNA was used as an internal standard. This protocol was applied to hMSC and E15 cells.
Runx2 and BMP-2 are osteogenic markers; Axin2, Wnt3a, and Sox 9 are Wnt-inducible gene markers.
The assay for mRNA expression followed the same procedure with hMSCs as described for C2C12 cells (Example 7).
(Quantitative PCR measures a nucleic acid by following its amplification.)

Setting [1] is: compounds of Formula II or IV, absence of matrix.
[2] abbreviates: compounds of Formula II or IV, presence of calcium phosphate matrix.
Setting [3] is: compounds of Formula VI, absence of matrix.
[4] abbreviates: compounds of Formula VI, presence of calcium phosphate matrix.

As to `Cc1nc2c(-c3ccccc3)cnn2c(N2CCN(C)CC2)c1C` [Compound 31, 3-phenyl-5,6-dimethyl-7-(N-methyl-N-piperazinyl)-pyrazolo[1,5-a]pyrimidine], the “ALP activity −matrix” value in the assay on C2C12 cells (setting [1]) is on record as “+ (5-50%)”. In addition, the “ALP activity +matrix” value with C2C12 cells (setting [2]) is reported as “+ (5-50%)”. Besides, the EC50 in the assay with Wnt transcription is 15 to 40 nM.

Consider `Cc1nc2c(-c3ccccc3)cnn2c(NCCC(C)C)c1C` [Compound 32, 3-phenyl-5,6-dimethyl-7-[N-(3-methylbutyl)amino]-pyrazolo[1,5-a]pyrimidine], for which the activation at 0.5 µM in the assay with C2C12 cells (setting [1]) and with C2C12 cells (setting [2]) was < 5% each time. Further, the EC50 in the assay on Wnt transcription (Homo sapiens, HEK-293T) was > 40 nM.

Regarding `COc1cc(C=CC(=O)C=C(O)C=Cc2ccc(O)c(OC)c2)ccc1O` [Compound 38, 1,7-Bis(4-hydroxy-3-methoxyphenyl)-5-hydroxy-hepta-1,4,6-trien-3-one], the activation at 0.5 µM was 5 to 50% in the assay on C2C12 cells (setting [3]) and > 100% in the assay on C2C12 cells (setting [4]). In addition, the “robust mRNA up-regulation of VDR or ALP” value with hMSCs was “not observed”.

Take `CN(C)c1ccc(C=CC(=O)C2CCCC(=Cc3ccc(N(C)C)cc3)C2=O)cc1` (stereo not drawn) [Compound 57, 2-(4-N,N-dimethylaminobenzylidene)-6-(3-(4-N,N-dimethylaminophenyl)acryloyl)cyclohexanone]: the “ALP activity −matrix” value with C2C12 cells (setting [3]) is “− (<5%)”. Moreover, the “ALP activity +matrix” value in the assay on C2C12 cells (setting [4]) is recorded as “++ (50-100%)”.

Regarding `COc1cc(C=CC(=O)C2CCCC(=Cc3ccc(O)c(OC)c3)C2=O)ccc1O` (stereo not drawn) [Compound 58, 2-(4-Hydroxy-3-methoxybenzylidene)-6-(3-(4-hydroxy-3-methoxyphenyl)acryloyl)cyclohexanone], the activation at 0.5 µM with C2C12 cells (setting [3]) and with C2C12 cells (setting [4]) was 5 to 50% throughout.

Take `COc1cc(N(C)C)ccc1C=CC(=O)C1CCCC(=Cc2ccc(N(C)C)cc2OC)C1=O` (stereo not drawn) [Compound 59, 2-(4-N,N-dimethylamino-2-methoxybenzylidene)-6-(3-(4-N,N-dimethylamino-2-methoxyphenyl)acryloyl)cyclohexanone]: the “ALP activity −matrix” value in the assay with C2C12 cells (setting [3]) is reported as “− (<5%)”. Also, the “ALP activity +matrix” value in the assay with C2C12 cells (setting [4]) is reported as “++ (50-100%)”.

Take `O=C(CCc1ccc(O)cc1)C1CCCC(Cc2ccc(O)cc2)C1=O` (stereo not drawn) [Compound 62, 2-(4-Hydroxybenzyl)-6-(3-(4-hydroxyphenyl)propanoyl)cyclohexanone]: the activation at 0.5 µM with C2C12 cells (setting [3]) was < 5%; in the assay on C2C12 cells (setting [4]), 5 to 50%.

`O=C(C=C(O)CCc1ccc(O)cc1)CCc1ccc(O)cc1` [Compound 63, 5-Hydroxy-1,7-bis(4-hydroxyphenyl)hept-4-en-3-one]: the activation at 0.5 µM with C2C12 cells (setting [3]) fell in the range of 5 to 50%; in the assay on C2C12 cells (setting [4]), 50 to 100%.

For `O=C(C=CC1CCCCC1)C1CCCC(=CC2CCCCC2)C1=O` (stereo not drawn) [Compound 64, 2-(3-Cyclohexylacryloyl)-6-(cyclohexylmethylene)cyclohexanone], the activation at 0.5 µM in the assay on C2C12 cells (setting [3]) and with C2C12 cells (setting [4]) was 5 to 50% in each case.

Consider `NCCCCC(N)C(=O)Oc1ccc(C=CC(=O)CC(=O)C=Cc2ccc(OC(=O)C(N)CCCCN)cc2)cc1` [Compound 69, (2S,2′S)—O,O′-(3,5-Dioxohepta-1,6-diene-1,7-diyl)bis(4,1-phenylene) bis(2,6-bis-amino)hexanoate], for which the “ALP activity −matrix” value with C2C12 cells (setting [3]) is listed as “− (<5%)”. Besides, the “ALP activity +matrix” value with C2C12 cells (setting [4]) is listed as “+ (5-50%)”.

Take `COc1cc(C=CC(=O)C=C(O)C=Cc2ccc(OC(=O)[C@@H](N)C(C)C)c(OC)c2)ccc1OC(=O)[C@@H](N)C(C)C` [Compound 71, (2S,2′S)—O,O′-(3-hydroxy-5-oxohepta-1,3,6-triene-1,7-diyl)bis(2-methoxy-4,1-phenylene) bis(2-amino-3-methylbutanoate)]: the “ALP activity −matrix” value with C2C12 cells (setting [3]) is given as “+ (5-50%)”. Further, the “ALP activity +matrix” value in the assay on C2C12 cells (setting [4]) is reported as “+ (5-50%)”.

For `COc1cc(C=CC(=O)C2CCCC(=Cc3ccc(OC(=O)C(N)CCCCN)c(OC)c3)C2=O)ccc1OC(=O)C(N)CCCCN` (stereo not drawn) [Compound 80, 4-(3-(3-(4-(2,6-diaminohexanoyloxy)-3-methoxybenzylidene)-2-oxocyclohexyl)-3-oxoprop-1-enyl)-2-methoxyphenyl bis(2,6-diaminohexanoate)], in the assay on C2C12 cells (setting [3]), the “ALP activity −matrix” value is recorded as “− (<5%)”. For the same compound, in the assay on C2C12 cells (setting [4]), the “ALP activity +matrix” value is “+ (5-50%)”.

With `CC(C)[C@H](NC(=O)OC(C)(C)C)C(=O)Oc1ccc(C=CC(O)=CC(=O)C=Cc2ccc(O)cc2)cc1` [Compound 83, (S)-4-(3-hydroxy-7-(4-hydroxyphenyl)-5-oxohepta-1,3,6-trienyl)phenyl 2-N-Boc-amino-3-methylbutanoate], in the assay with C2C12 cells (setting [3]), the “ALP activity −matrix” value is recorded as “+ (5-50%)”. In addition, in the assay with C2C12 cells (setting [4]), the “ALP activity +matrix” value was “− (<5%)”.

Take “(2S,2′S)4-(3-(3-(4-(2-amino-3-methylbutanoyloxy)-3-methoxybenzylidene)-2-oxocyclohexyl)-3-oxoprop-1-enyl)-2-methoxyphenyl bis(2-(tert-butoxycarbonylamino)-3-methylbutanoate) [Compound 78]”: in the assay on C2C12 cells (setting [3]), the “ALP activity −matrix” value is “− (<5%)”. In the assay with C2C12 cells (setting [4]), the “ALP activity +matrix” value is “+ (5-50%)”.

For the compound “cis-1-acetyl-4-(phenylamino)-1,2,3,4-tetrahydroquinoline [Compound 20]”, the “ALP activity −matrix” value with C2C12 cells (setting [1]) is listed as “− (<5%)”. Besides, the “ALP activity +matrix” value in the assay with C2C12 cells (setting [2]) was “++ (50-100%)”.
